Test results reported in ChEMBL document CHEMBL1201862, “PubChem BioAssay data set” (2004).
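Assay format: 96-well plates, 48-hour exposure. GI50: concentration for 50% inhibition of growth.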 The source made the active and inactive calls. Cut-off read from the data, not from the text of the source: active = GI50 up to about 1.1 µM and inactive = higher.

Columns and labels:
Assay in all cases: DTP human tumour cell line panel, 48 h
TK-10 = test system: TK-10
SK-OV-3 = test system: SK-OV-3
HCT-116 = test system: HCT-116
NCI-H522 = test system: NCI-H522
HOP-62 = test system: HOP-62
UO-31 = test system: UO-31
PC-3 = test system: PC-3
CCRF-CEM = test system: CCRF-CEM
SW-620 = test system: SW-620
786-0 = test system: 786-0
K562 = test system: K562
MDA-N = test system: MDA-N
OVCAR-4 = test system: OVCAR-4
SN12C = test system: SN12C
T47D = test system: T47D
COLO 205 = test system: COLO 205
HOP-92 = test system: HOP-92
HT-29 = test system: HT-29
HCT-15 = test system: HCT-15
NCI-H226 = test system: NCI-H226

Structure (SMILES) | GI50 (TK-10) | GI50 (SK-OV-3) | GI50 (HCT-116) | GI50 (NCI-H522) | GI50 (HOP-62) | GI50 (UO-31) | GI50 (PC-3) | GI50 (CCRF-CEM) | GI50 (SW-620) | GI50 (786-0) | GI50 (K562) | GI50 (MDA-N) | GI50 (OVCAR-4) | GI50 (SN12C) | GI50 (T47D) | GI50 (COLO 205) | GI50 (HOP-92) | GI50 (HT-29) | GI50 (HCT-15) [µM] | GI50 (NCI-H226)
CN1C(=O)C2(Cc3cn(C45CC67SSC(CO)(C(=O)N6C4Nc4ccccc45)N(C)C7=O)c4ccccc34)SSC1(CO)C(=O)N2C (stereo unspecified) | 0.0243 µM (active) | 0.262 µM (active) | 0.0113 µM (active) | < 0.01 µM (active) | 0.0634 µM (active) | 0.0335 µM (active) | 0.0478 µM (active) | 1.52 µM (inactive) | 0.0108 µM (active) | < 0.01 µM (active) | < 0.01 µM (active) | 0.0198 µM (active) | < 0.01 µM (active) | 0.0147 µM (active) | < 0.01 µM (active) | < 0.01 µM (active) | 0.053 µM (active) | < 0.01 µM (active) | < 0.01 | –
CCOC(=O)c1nc2ccccc2nc1Oc1ccc(C(=O)OC)cc1 | > 100 µM (inactive) | > 100 µM (inactive) | > 100 µM (inactive) | – | > 100 µM (inactive) | > 100 µM (inactive) | > 100 µM (inactive) | 41.8 µM (inactive) | > 100 µM (inactive) | > 100 µM (inactive) | > 100 µM (inactive) | > 100 µM (inactive) | > 100 µM (inactive) | > 100 µM (inactive) | > 100 µM (inactive) | > 100 µM (inactive) | > 100 µM (inactive) | > 100 µM (inactive) | > 100 | > 100 µM (inactive)
C#CCn1c(=O)c(C)cn(/C(=C/C(=O)OCC)C(=O)OCC)c1=O | 2.01 µM (inactive) | 21.9 µM (inactive) | 4.67 µM (inactive) | – | 15.8 µM (inactive) | 11.3 µM (inactive) | 12.6 µM (inactive) | 1.04 µM (active) | 1.67 µM (inactive) | 2.84 µM (inactive) | 2.84 µM (inactive) | 15 µM (inactive) | 6.28 µM (inactive) | 8.57 µM (inactive) | 4.73 µM (inactive) | 2.38 µM (inactive) | 3.01 µM (inactive) | 2.23 µM (inactive) | 1.21 | 2.19 µM (inactive)
COc1cc(/C=C2\N=C(c3ccccc3)N(c3nc4ccc(Sc5ccccc5)cc4[nH]3)C2=O)ccc1O | 20.7 µM (inactive) | 30.4 µM (inactive) | 21.1 µM (inactive) | 18.8 µM (inactive) | 42.7 µM (inactive) | 28.7 µM (inactive) | 24.4 µM (inactive) | 6.14 µM (inactive) | 21.7 µM (inactive) | 21.7 µM (inactive) | 11.7 µM (inactive) | 5.13 µM (inactive) | 30.1 µM (inactive) | 26.9 µM (inactive) | 27 µM (inactive) | 18 µM (inactive) | 62.2 µM (inactive) | 18.4 µM (inactive) | 21.9 | –
CN1CC[C@]23c4c5ccc(O)c4O[C@H]2C(O)CC[C@@]3(O)[C@H]1C5 (stereo partly specified) | > 100 µM (inactive) | > 100 µM (inactive) | > 100 µM (inactive) | > 100 µM (inactive) | > 100 µM (inactive) | > 100 µM (inactive) | > 100 µM (inactive) | – | > 100 µM (inactive) | > 100 µM (inactive) | – | > 100 µM (inactive) | > 100 µM (inactive) | > 100 µM (inactive) | > 100 µM (inactive) | > 100 µM (inactive) | > 100 µM (inactive) | > 100 µM (inactive) | > 100 | > 100 µM (inactive)
O=C1c2cccnc2C(=O)c2c1nc1ccccc1c2-c1cncc(-c2c3c(nc4ccccc24)C(=O)c2cccnc2C3=O)c1 | 0.458 µM (active) | 0.363 µM (active) | 0.139 µM (active) | 0.103 µM (active) | 0.281 µM (active) | 0.244 µM (active) | 0.303 µM (active) | 0.198 µM (active) | 0.041 µM (active) | 0.0995 µM (active) | 0.213 µM (active) | 0.399 µM (active) | 0.236 µM (active) | 0.126 µM (active) | 0.439 µM (active) | 0.525 µM (active) | – | 0.327 µM (active) | 0.0251 | 0.163 µM (active)
Fc1ccc(NCn2nc(COc3ccccc3Cl)n(/N=C/c3ccc(-c4ccc(Cl)cc4Cl)o3)c2=S)cc1Cl | 31.8 µM (inactive) | 46.6 µM (inactive) | 28.4 µM (inactive) | 36.7 µM (inactive) | 52.4 µM (inactive) | 32.9 µM (inactive) | 38.5 µM (inactive) | 25.5 µM (inactive) | 36.1 µM (inactive) | 27 µM (inactive) | 15.4 µM (inactive) | 38.5 µM (inactive) | 53.2 µM (inactive) | – | 27.7 µM (inactive) | – | – | > 100 µM (inactive) | 26.7 | 83.8 µM (inactive)
Cc1ccc(S(=O)(=O)NC(=O)NC(C(=O)O)C(C)C)cc1 (stereo unspecified) | > 100 µM (inactive) | > 100 µM (inactive) | > 100 µM (inactive) | > 100 µM (inactive) | > 100 µM (inactive) | > 100 µM (inactive) | > 100 µM (inactive) | > 100 µM (inactive) | > 100 µM (inactive) | > 100 µM (inactive) | > 100 µM (inactive) | > 100 µM (inactive) | > 100 µM (inactive) | > 100 µM (inactive) | > 100 µM (inactive) | > 100 µM (inactive) | > 100 µM (inactive) | > 100 µM (inactive) | > 100 | –
CC(=O)OCC1OC(O/C=C(\CN=[N+]=[N-])C(C)=O)C(OC(C)=O)C(OC(C)=O)C1OC(C)=O (stereo unspecified) | 6.19 µM (inactive) | 45 µM (inactive) | 3.51 µM (inactive) | 1.79 µM (inactive) | 25.6 µM (inactive) | 8.28 µM (inactive) | 12 µM (inactive) | 1.39 µM (inactive) | 3.53 µM (inactive) | 5.38 µM (inactive) | 5.02 µM (inactive) | 8.85 µM (inactive) | 12.5 µM (inactive) | 7.96 µM (inactive) | 3.67 µM (inactive) | 1.74 µM (inactive) | 6.15 µM (inactive) | 11.4 µM (inactive) | 3.94 | –
CC1C(=O)CC[C@@]2(C)C(=O)CCCC12O (stereo partly specified) | > 100 µM (inactive) | > 100 µM (inactive) | > 100 µM (inactive) | > 100 µM (inactive) | > 100 µM (inactive) | > 100 µM (inactive) | > 100 µM (inactive) | – | > 100 µM (inactive) | > 100 µM (inactive) | > 100 µM (inactive) | > 100 µM (inactive) | > 100 µM (inactive) | > 100 µM (inactive) | > 100 µM (inactive) | > 100 µM (inactive) | > 100 µM (inactive) | > 100 µM (inactive) | > 100 | > 100 µM (inactive)
COC1/C=C\C=C(/C)C(=O)Nc2cc3nc4ccc(Br)cc4oc-3c(c2=O)CC(C)CC(OC)C(O)C(C)/C=C(\C)C1OC(N)=O (stereo unspecified) | 0.0424 µM (active) | 0.129 µM (active) | 0.0276 µM (active) | 0.01 µM (active) | 4.1 µM (inactive) | 0.12 µM (active) | 0.931 µM (active) | – | 0.01 µM (active) | 0.0227 µM (active) | 0.01 µM (active) | 0.00451 µM (active) | 0.469 µM (active) | 0.0481 µM (active) | 0.00277 µM (active) | 0.01 µM (active) | 0.0134 µM (active) | < 0.0396 µM (active) | 0.142 | 1.75 µM (inactive)
N=C(N)NS(=O)(=O)c1ccc(Nc2c3ccccc3nc3c(C(=O)NC(CO)(CO)CO)cccc23)cc1 | 47.3 µM (inactive) | 22 µM (inactive) | – | 11.7 µM (inactive) | 13.6 µM (inactive) | 27.5 µM (inactive) | 32.5 µM (inactive) | 4.63 µM (inactive) | 17.6 µM (inactive) | 15.7 µM (inactive) | 24.2 µM (inactive) | 35.6 µM (inactive) | > 10 µM (inactive) | 26.5 µM (inactive) | 4.7 µM (inactive) | 12.6 µM (inactive) | 14.4 µM (inactive) | 21.3 µM (inactive) | 93.8 | –
CC1=C(C#N)C2C(=C(N)Oc3ccccc32)C(N)=N1 (stereo unspecified) | 21.1 µM (inactive) | 8.38 µM (inactive) | 24.4 µM (inactive) | 15.4 µM (inactive) | 35.6 µM (inactive) | 17.4 µM (inactive) | 33.3 µM (inactive) | 30.1 µM (inactive) | 32.9 µM (inactive) | 20.4 µM (inactive) | 29.7 µM (inactive) | 21.8 µM (inactive) | 32.8 µM (inactive) | 23.7 µM (inactive) | 20.1 µM (inactive) | 26.1 µM (inactive) | – | 27.2 µM (inactive) | 17.9 | 12.2 µM (inactive)
COc1ccc(-n2c(CCC(=O)O)nc3c2C(=O)c2ccccc2C3=O)cc1 | > 100 µM (inactive) | > 100 µM (inactive) | 80.2 µM (inactive) | 34.3 µM (inactive) | > 100 µM (inactive) | > 100 µM (inactive) | > 100 µM (inactive) | 88.9 µM (inactive) | > 100 µM (inactive) | > 100 µM (inactive) | 71.3 µM (inactive) | > 100 µM (inactive) | > 100 µM (inactive) | > 100 µM (inactive) | 33 µM (inactive) | > 100 µM (inactive) | – | > 100 µM (inactive) | > 100 | > 100 µM (inactive)
COC(=O)[C@@]12OC[C@]34[C@H]([C@@H](O)[C@@H]1O)[C@@]1(C)CC(=O)C(O)=C(C)[C@@H]1C[C@H]3OC(=O)[C@H](OC(=O)/C=C(\C)C(C)C)[C@@H]24 [BRUCEANTIN] | 0.021 µM (active) | 0.02 µM (active) | 0.02 µM (active) | – | 0.02 µM (active) | 0.0598 µM (active) | 0.016 µM (active) | 0.02 µM (active) | 0.02 µM (active) | 0.0292 µM (active) | 0.02 µM (active) | < 0.0101 µM (active) | 0.0211 µM (active) | 0.0222 µM (active) | 0.0153 µM (active) | 0.0242 µM (active) | 0.0328 µM (active) | 0.02 µM (active) | 0.0214 | 0.02 µM (active)
